Among the data in patent EP4483954A1 (Masarykova Univerzita, priority 2023, dated 2025) are IC50 values, retold here.

The test deals with T1, CDKL4(h) (Homo sapiens, UniProt Q5MAI5).
T1 construct: purchased Eurofins (KinaseProfiler)
The test can be described thus: radiometric kinase assay (KinaseProfiler, Eurofins), CDKL4. It counts as biochemical. The note with it: in vitro radiometric kinase assay, tested at 1 nM to 10 000 nM, no pre-incubation; read-out: inhibitory activities (IC50 values) CDKL4. As to the method: The compounds were profiled in the radiometric assays (KinaseProfiler, Eurofins).
Briefly, kinases were diluted in the buffer shown below prior to addition to the reaction mix: • CDKL3, TAF1L: 20 mM Tris/HCl pH 8.5, 0.2 mM EDTA, 0.1% β-mercaptoethanol, 0.01% Brij-35, 5% glycerol, 1 mg/ml BSA; • Haspin: 15 mM MOPS, 0.75 mM EDTA, 0.0075% Brij-35, 3.75% Glycerol, 150 mM NaCl, 0.1% β-mercaptoethanol, 1 mg/mLBSA; • CDKL4, CLK2, PIM1, TRB2: […], 1 mM EDTA, 0.01% Brij-35, 5% Glycerol, 0.1% β-mercaptoethanol, 1 mg/mL BSA.
All compounds were prepared to 50x final assay concentration in 100% DMSO. This working stock of the compound was added to the assay well as the first component in the reaction, followed by the remaining components as detailed in the general assay protocols below. There was no pre-incubation step between the compound and the kinase prior to initiation of the reaction.
CDKL4(h) was incubated with 8 mM MOPS pH 7.0, 0.2 mM EDTA, 250 µM RRRFRPASPLRGPPK (SEQ ID NO. 1), 10 mM magnesium acetate and γ-^33P-ATP (specific activity and concentration as required). The reaction was initiated by the addition of the Mg/ATP mix. After incubation for 120 minutes at room temperature, the reaction was stopped by the addition of phosphoric acid to a concentration of 0.5%. An aliquot of the stopped reaction was spotted onto a filter and washed four times for 4 minutes in 0.425% phosphoric acid and once in methanol prior to drying and scintillation counting.
Kinase activity data were expressed as the percent remaining kinase activity in tested samples compared to the vehicle (DMSO) reactions. The compounds were tested at the following concentrations: 1 nM, 3 nM, 10 nM, 30 nM, 100 nM, 300 nM, 1000 nM, 3000 nM, and 10 000 nM; IC50 values and curve fits were then obtained.

T1 sequence (Q5MAI5 whole entry): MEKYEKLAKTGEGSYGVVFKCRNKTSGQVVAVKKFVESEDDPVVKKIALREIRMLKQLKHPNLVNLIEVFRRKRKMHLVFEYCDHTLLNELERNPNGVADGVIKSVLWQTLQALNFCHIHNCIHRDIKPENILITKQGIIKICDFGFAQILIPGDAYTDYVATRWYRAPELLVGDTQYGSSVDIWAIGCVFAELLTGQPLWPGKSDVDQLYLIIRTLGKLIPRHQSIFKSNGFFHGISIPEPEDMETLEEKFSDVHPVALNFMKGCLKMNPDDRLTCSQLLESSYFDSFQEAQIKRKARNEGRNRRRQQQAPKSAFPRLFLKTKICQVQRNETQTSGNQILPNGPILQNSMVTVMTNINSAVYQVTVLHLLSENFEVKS

Usually IC50 stands for the concentration that gives 50% inhibition. On to `c1cc(-c2csc3ccc(Nc4cc[nH]n4)nc23)ccn1` [Preparative Example 101, N-(1H-pyrazol-3-yl)-3-(pyridin-4-yl)thieno[3,2-b]pyridin-5-amine], for which the IC50 fell in the range of 100 to 499 nM.

In the case of `Fc1cc(-c2ccc3scc(-c4ccccc4)c3n2)cc(F)c1F` [Preparative Example 122, 3-phenyl-5-(3,4,5-trifluorophenyl)thieno[3,2-b]pyridine], the IC50 is 3000 to 10000 nM. `c1ccc(-c2csc3ccc(-c4ccoc4)nc23)cc1` [Preparative Example 123, 5-(furan-3-yl)-3-phenylthieno[3,2-b]pyridine]: the IC50 fell in the range of 3000 to 10000 nM. `c1ccc(-c2csc3ccc(-c4cnoc4)nc23)cc1` [Preparative Example 124, 4-(3-phenylthieno[3,2-b]pyridin-5-yl)isoxazole]: the IC50 is 3000 to 10000 nM. As for `Cn1cc(-c2csc3ccc(Oc4ccccc4)nc23)cn1` [Preparative Example 139, 3-(1-methyl-1H-pyrazol-4-yl)-5-phenoxythieno[3,2-b]pyridine], the IC50 fell in the range of 500 to 3000 nM. Regarding `Cc1sc2ccc(-c3cnn(C)c3)nc2c1-c1ccncc1` [Preparative Example 142, 2-methyl-5-(1-methyl-1H-pyrazol-4-yl)-3-(pyridin-4-yl)thieno[3,2-b]pyridine], the IC50 lay within 500 to 3000 nM. Turning to `Cc1cc2scc(-c3ccncc3)c2nc1-c1cnn(C)c1` [Preparative Example 150, 6-methyl-5-(1-methyl-1H-pyrazol-4-yl)-3-(pyridin-4-yl)thieno[3,2-b]pyridine], the IC50 fell in the range of 500 to 3000 nM. As to `Cc1cc2scc(-c3ccncc3)c2nc1-c1ccn(C)n1` [Preparative Example 151, 6-methyl-5-(1-methyl-1H-pyrazol-3-yl)-3-(pyridin-4-yl)thieno[3,2-b]pyridine], the IC50 lay within 3000 to 10000 nM.

Turning to `Cc1cc(-c2cnn(C)c2)nc2c(-c3ccncc3)csc12` [Preparative Example 157, 7-methyl-5-(1-methyl-1H-pyrazol-4-yl)-3-(pyridin-4-yl)thieno[3,2-b]pyridine], the half-inhibitory concentration (IC50) was in the range of 500 to 3000 nM.

Consider `Cn1cc(-c2cc(Cl)c3scc(-c4ccncc4)c3n2)cn1` [Preparative Example 162, 7-chloro-5-(1-methyl-1H-pyrazol-4-yl)-3-(pyridin-4-yl)thieno[3,2-b]pyridine], for which the IC50 is 100 to 499 nM.

As to `Cn1ccc(-c2cc(Cl)c3scc(-c4ccncc4)c3n2)n1` [Preparative Example 163, 7-chloro-5-(1-methyl-1H-pyrazol-3-yl)-3-(pyridin-4-yl)thieno[3,2-b]pyridine], the IC50 is 500 to 3000 nM. `COc1cc(-c2ccn(C)n2)nc2c(-c3ccncc3)csc12` [Preparative Example 165, 7-methoxy-5-(1-methyl-1H-pyrazol-3-yl)-3-(pyridin-4-yl)thieno[3,2-b]pyridine]: the IC50 lay within 500 to 3000 nM.
